Experimental data: patent publication US12497359B2, “Acrylamide derivatives” (NRG Therapeutics Ltd, priority 2020, dated 2025)

System: mPTP
Assay: mPTP human platelet mitochondria membrane potential flow cytometry assay
Assay type: cell-based
Conditions: stimulated human platelets
Procedure: The mPTP cell based assay was performed using a mitochondria membrane potential flow cytometry assay in stimulated human platelets. Simulation of platelets results in the rapid influx of Ca^2+ across the platelet membrane. The Ca^2+ is then sequestered by mitochondria until the threshold for mPTP opening is reached, at which point the pore opens and the mitochondrial membrane potential is dissipated. Changes in mitochondria membrane potential due to mPTP opening can be quantified in live platelets using standard mitochondrial membrane potential dyes e.g. 3,3′-dihexyloxacarbocyanine Iodide; DiOC6 (3), enabling pharmacological characterisation of mPTP inhibitors.
Fresh human blood (20 ml) was collected from consented donors into 3.2% sodium citrate. Platelets were isolated by centrifugation at 200 g for 20 min at room temperature, then the platelet rich plasma layer transferred to a fresh tube. Prostaglandin 12 is added to the platelets at a final concentration of 20 ng/ml. After centrifugation at 640 g for 10 min, the platelet rich pellet was resuspended in 4 ml HEPES assay buffer (137 mM NaCl, 2.7 mM KCl, 11.9 mM NaHCO3, 0.42 mM NaH2PO4, 1 mM MgCl2, 5.5 mM glucose, 0.1% bovine serum albumin, 10 mM HEPES adjusted to pH 7.4) and stored on ice.
Test compounds were prepared from 10 mM stocks in DMSO and serially diluted in assay buffer containing 0.4% DMSO and 25 μl transferred into a 96 well plate. Platelets were loaded with the mitochondrial membrane potential dye DiOC6 (3) (3,3′-dihexyloxacarbocyanine Iodide; Invitrogen) at 200 nM for 30 min, then 50 μl plated into each well of the 96 well plate containing diluted test compound and incubated for 15 min. Control wells included DMSO (0.1% final concentration) only or 5 μM cyclosporin A. Platelets were then stimulation with the addition of assay buffer (25 μl) containing CaCl2, alpha thrombin and Convulxin to achieve a final concentrations of 2 mM, 0.017 U/ml and 0.167 μg/ml respectively and incubated for 14 min. The reaction was stopped by the addition of 25 μl 15 mM EDTA in assay buffer. The mitochondrial membrane potential across the population of platelets in each well was then quantified by flow cytometry using a Guava easyCyte 5 Benchtop Flow Cytometer with 3000 events per well. The percentage of platelets with a depolarised mitochondrial membrane potential was calculated for each well. A pIC50 for each compound was then calculated using a standard four parameter curve fit model (GraphPad Prism).

SMILES | mPTP Human platelets pIC50
C[C@H]1Cc2ccccc2[C@@H]1NC(=O)/C=C/c1ccc2cn[nH]c2c1 (single isomer, unassigned) [Example 14c] | 6.8
O=C(/C=C/c1ccc2cn[nH]c2c1)N[C@@H]1CCc2ccccc21 [Example 3, (R,E)-N-(2,3-dihydro-1H-inden-1-yl)-3-(1H-indazol-6-yl)acrylamide] | 7.3
